Values after ≈ are worked out from the molar mass of the structure shown. Like-named read-outs stand apart in the source and are kept apart here.

Assay in all cases: agar dilution MIC assay of anaerobic bacteria
For orientation: In agar dilution, organisms are placed on agar that contains the substance at set levels.

In test [1] the test system is E. lentum. Type of test: cell-based, Eubacterium lentum. Conditions: Eggerthella lenta, read-out: MIC. The procedure: (§1) Each compound was assayed against a panel of anaerobic bacteria in culture, consisting of Gram-positive organisms, such as Lactobacilli, Bifidobacteria, Clostridium spp., and Gram-negative bacteria, such as […] fragilis spp., according to guidelines of the Clinical and Laboratory Standards Institute (CLSI document M11-A7, CLSI, Wayne, Pa., 2007). […] One tenth mL of diluted bacteria containing 500-1000 colony-forming units (CFU) was plated and spread, and the plates incubated at 37° C. for 24-48 hours. MIC (minimum inhibitory concentration) is equivalent to the lowest concentration in μg/ml at which growth, i.e., colony formation, is not observed. […] Bacteria were assayed using a reference agar dilution method. Drug dilutions and drug-supplemented agar plates were prepared manually. The test organisms were maintained frozen at −80° C. The isolates were sub-cultured on Supplemented Brucella Agar (SBA) plates in a Bactron II anaerobic chamber and incubated for 48 hours at 35-36° C. in the Bactron II anaerobe chamber. Following inoculation, the drug-supplemented plates were incubated at 35° C. for 48 hours in the anaerobic environment (5% hydrogen, 5% carbon dioxide, 90% nitrogen) of the Bactron II. The MIC in μg/ml was read per Clinical and Laboratory Standards Institute guidelines.

The test system of test [2] is Bi. brevi. Type of test: cell-based, Bifidobacterium brevi. The procedure: as §1
Test [3] has as its system Bi. longum. Type of test: cell-based, Bifidobacterium longum. The following applies: Bifidobacterium longum, read-out: MIC. The procedure:
as §1

In test [4] the test system is C. difficile. The test is classed as cell-based, Clostridium difficile. The following applies: for MIC: Clostridioides difficile, read-out: MIC. The procedure: as §1
Test [5] concerns Ba. fragilis. Type of test: cell-based. The following applies: Bacteroides fragilis. The procedure:
as §1

For test [6], the system named is L. acidophilus. Type of test: cell-based. Conditions: Lactobacillus acidophilus. The procedure:
as §1

Test [7] relates to L. casei. Type of test: cell-based, Lactobacillus casei. Conditions: Lacticaseibacillus casei. The method, then: as §1

As a reminder, the MIC is the lowest concentration that inhibits growth of the organism. With `CC(C)C(=O)OCCCCCn1cnc2nc(NCc3ccc(Cl)c(Cl)c3)[nH]c(=O)c21` [Compound 332E], the MIC in test [1] (E. lentum, Micromyx Number 1274, Table 1) is 32 µg/mL (≈ 68.6 µM); in test [2] (Bifidobacterium, Bi. brevi, Micromyx Number 3967, Table 1) it was 32 µg/mL (≈ 68.6 µM); in test [3] (Bi. longum, Micromyx Number 3968, Table 1), above 32 µg/mL; in test [4] (C. diff., Micromyx Number 3579, Table 2), 4 µg/mL (≈ 8.58 µM); in test [4] (C. diff., Micromyx Number 3580, Table 2), 4 µg/mL (≈ 8.58 µM); in test [4] (C. diff., Micromyx Number 3581, Table 2), 2 µg/mL (≈ 4.29 µM). Also, the MIC in test [4] (C. diff., Micromyx Number 3582 (ATCC strain), Table 2) amounted to 4 µg/mL (≈ 8.58 µM); in test [4] (C. difficile, Micromyx Number 1209, Table 1) it was 4 µg/mL (≈ 8.58 µM); in test [4] (C. difficile, Micromyx Number 3579, Table 1), 4 µg/mL (≈ 8.58 µM); in test [4] (C. difficile, Micromyx Number 3580, Table 1) it was 4 µg/mL (≈ 8.58 µM); in test [4] (C. difficile, Micromyx Number 3581, Table 1), 4 µg/mL (≈ 8.58 µM); in test [4] (C. difficile, Micromyx Number 3582, Table 1), 16 µg/mL (≈ 34.3 µM). Also, the MIC in test [4] (C. difficile, Micromyx Number 3584, Table 1) amounted to 2 µg/mL (≈ 4.29 µM); in test [4] (C. difficile, Micromyx Number 3585, Table 1), 4 µg/mL (≈ 8.58 µM); in test [4] (C. difficile, Micromyx Number 3586, Table 1) it was 2 µg/mL (≈ 4.29 µM); in test [4] (C. difficile, Micromyx Number 3587, Table 1), 4 µg/mL (≈ 8.58 µM); in test [4] (C. difficile, Micromyx Number 3588, Table 1), 1 µg/mL (≈ 2.14 µM); in test [4] (C. difficile, Micromyx Number 3589, Table 1) it was 4 µg/mL (≈ 8.58 µM). Besides, the MIC is 4 µg/mL (≈ 8.58 µM) in test [4] (C. difficile, Micromyx Number 3590, Table 1); 4 µg/mL (≈ 8.58 µM) in test [4] (C. difficile, Micromyx Number 3591, Table 1); 4 µg/mL (≈ 8.58 µM) in test [4] (C. difficile, Micromyx Number 3593, Table 1); 4 µg/mL (≈ 8.58 µM) in test [4] (C. difficile, Micromyx Number 3594, Table 1); 4 µg/mL (≈ 8.58 µM) in test [4] (C. difficile, Micromyx Number 3595, Table 1); 2 µg/mL (≈ 4.29 µM) in test [4] (C. difficile, Micromyx Number 4381 (ATCC strain), Table 1). For the same molecule, the MIC is above 32 µg/mL in test [5] (B. fragilis, Micromyx Number 0123 (ATCC strain), Table 2); above 32 µg/mL in test [5] (Ba. fragilis, Micromyx Number 0123 (ATCC strain), Gram negative, Table 1); 8 µg/mL (≈ 17.2 µM) in test [6] (Micromyx Number 0681, Table 1); above 32 µg/mL in test [7] (Micromyx Number 1722, Table 1). In addition, the “potency and selectivity against C. diff. versus other Gram-positive anaerobes (in words)” value in test [4] (summary of MIC panels, Tables 1 and 3) was “most potent and selective”.

`O=c1[nH]c(NCc2ccc(Cl)c(Cl)c2)nc2ncn(CCOCCN3CCOCC3)c12` [Compound 360A]: the MIC in test [1] (Eu. Lentum, Strain no. 1274 (ATCC strain), Table 3) is above 32 µg/mL; in test [2] (Bifidobacterium breve, Bi. Breve, Strain no. 3967 (ATCC strain), Table 3), above 32 µg/mL; in test [3] (Bi. Longum, Strain no. 3968 (ATCC strain), Table 3), above 32 µg/mL; in test [4] (C. diff., Strain no. 3580, Table 3), 16 µg/mL (≈ 34.2 µM); in test [4] (C. diff., Strain no. 3581, Table 3) it was 8 µg/mL (≈ 17.1 µM); in test [4] (C. diff., Strain no. 3582, Table 3), 16 µg/mL (≈ 34.2 µM). Also, the minimal inhibitory concentration (MIC) came to 4 µg/mL (≈ 8.56 µM) in test [4] (C. diff., Strain no. 3584, Table 3); 16 µg/mL (≈ 34.2 µM) in test [4] (C. diff., Strain no. 3585, Table 3); 4 µg/mL (≈ 8.56 µM) in test [4] (C. diff., Strain no. 3586, Table 3); 8 µg/mL (≈ 17.1 µM) in test [4] (C. diff., Strain no. 3587, Table 3); 1 µg/mL (≈ 2.14 µM) in test [4] (C. diff., Strain no. 3588, Table 3); 16 µg/mL (≈ 34.2 µM) in test [4] (C. diff., Strain no. 3589, Table 3). The MIC in test [4] (C. diff., Strain no. 4381 (ATCC strain), Table 3) is 8 µg/mL (≈ 17.1 µM); in test [5] (B. fragilis, Strain no. 0123 (ATCC strain), Gram-negative (control), Table 3), above 32 µg/mL; in test [6] (Strain no. 0681, Table 3), 16 µg/mL (≈ 34.2 µM); in test [7] (Strain no. 1722 (ATCC strain), Table 3), above 32 µg/mL.

The values above are taken from patent US8796292B2, “Selective antibacterials for clostridium difficile infections” (GLSynthesis Inc., priority 2009, dated 2014).
